From the NIST ThermoML archive (doi:10.1021/je0341918)

Assay: molar heat capacity at constant pressure; xn = mol fraction of the nth substance listed
Conditions: 101.3 kPa, Liquid, Small sample (50 mg) DSC

OCCCCO [1,4-butanediol] + O
molar heat capacity at constant pressure [J/K/mol]
Conditions | x1 = 0.0218 | x1 = 0.0478 | x1 = 0.0789 | x1 = 0.1175 | x1 = 0.1665 | x1 = 0.2305 | x1 = 0.4441 | x1 = 0.6426 | x1 = 1
293.15 K | 88.5 | 97.3 | 103.9 | 111.8 | 120.1 | 129 | 138.7 | 169.3 | 198.2
303.15 K | 89.3 | 97.7 | 104.8 | 112.7 | 121.3 | 130.4 | 140.8 | 173.3 | 203.6
313.15 K | 88.8 | 98.1 | 105.5 | 113.8 | 122.4 | 131.8 | 142.7 | 177.1 | 208.8
323.15 K | 88.9 | 98.5 | 106.2 | 114.8 | 123.5 | 133.1 | 144.6 | 180.7 | 214
333.15 K | 89.2 | 99.1 | 107.3 | 116 | 125 | 135.1 | 147.3 | 185.7 | 221.3
343.15 K | 89.1 | 99.6 | 108.3 | 117.2 | 126.5 | 137 | 149.9 | 190.8 | 228.6
353.15 K | 89.3 | 100.2 | 109.3 | 118.5 | 128.1 | 139.2 | 152.9 | 196.4 | 236.9
